Data as given in article PMC6271730, “Bioactive Secondary Metabolites from Phomopsis sp., an Endophytic Fungus from Senna spectabilis” (Molecules, 2014).
pIC50: −log10 of the molar value. Read-outs that look alike come from different tables or passages of the source.

Molecular target: T1, Myeloperoxidase (MPO, EC 1.11.1.7) (Homo sapiens, UniProt P05164)
T1 construct: commercial purified enzyme (Planta Natural Products, Vienna); mature heavy and light chains come from one precursor
Experiment: MPO chlorination activity, taurine chloramine / TMB oxidation at […] nm
Type: biochemical

T1 sequence (P05164 165-273): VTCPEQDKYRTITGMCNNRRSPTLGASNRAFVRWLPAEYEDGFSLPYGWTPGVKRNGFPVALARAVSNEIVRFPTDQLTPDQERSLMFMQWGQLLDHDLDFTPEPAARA
T1 sequence (P05164 279-745): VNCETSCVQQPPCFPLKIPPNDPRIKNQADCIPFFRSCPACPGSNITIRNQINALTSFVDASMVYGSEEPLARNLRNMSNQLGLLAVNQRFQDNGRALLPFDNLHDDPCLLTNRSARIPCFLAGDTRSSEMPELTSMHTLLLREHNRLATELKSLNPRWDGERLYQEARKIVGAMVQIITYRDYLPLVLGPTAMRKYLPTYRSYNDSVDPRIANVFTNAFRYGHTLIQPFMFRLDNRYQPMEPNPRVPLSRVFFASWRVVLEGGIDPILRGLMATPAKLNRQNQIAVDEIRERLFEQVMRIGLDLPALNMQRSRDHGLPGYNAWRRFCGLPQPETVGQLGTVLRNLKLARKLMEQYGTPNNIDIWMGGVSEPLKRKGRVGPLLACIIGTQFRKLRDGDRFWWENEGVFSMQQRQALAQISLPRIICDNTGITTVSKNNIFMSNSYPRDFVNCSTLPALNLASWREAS

SMILES	pIC50 (read-out: IC50)	pIC50
COc1cc(O)c2c(=O)oc3cc(O)cc(C)c3c2c1 [compound 4, alternariol monomethyl ether]	< 4.30	
Cc1cc(O)cc2oc(=O)c3c(O)cc(O)cc3c12 [compound 5, alternariol]		< 4.30
